One compound from US20040138311A1, “Medicament containing an effector of the glutathione metabolism together with $g(a)-lipoic acid for treating diabetes mellitus” (priority 2001, published 2004) can be followed below.

Common to all, as to format: cell-based, human
Assay [1] relates to lymphocytes (peripheral immune cells). The assay is described as follows: Intracellular thiol expression of thiol-depleted peripheral immune cells (CMFDA flow cytofluorimetry). As to conditions: thiol-deficient conditions (1603), 10-20% thiol reduction. Here is the method:
Peripheral immune cells from healthy donors (n=9) were isolated from the peripheral blood. The major fraction of the resulting total population of mononuclear cells regularly represents lymphocytes with a relative percentage of approximately 90%, depending on the donor. 10% of the mononuclear cells are represented by monocytes. The mononuclear cells obtained were absorbed in special cell culture media and incubated in a gasifying incubation cabinet at 37° C., a relative humidity of 98% and 5% relative air-CO2 content. […] To test the influence of the combinations used according to the invention on the thiol status of thiol-deficient immune cells, these cells were artificially thiol-depleted. This process was carried out using proven methods by cultivation in thiol-deficient media (RPMI 1603). Comparative cultures using complete media (RPMI) 1640) were used to define the best possible normal value under the culture conditions. […] Primarily non-fluorogenic CMFDA is thereby passively absorbed by the cell. By means of the chlormethyl group, there is a bonding to cytoplasmic thiol groups. […] The median fluorescence intensity of the specimen (10,000 cells) is directly proportional to the concentration of the intracellular thiol groups. […] The data are presented as the ratio of the cellular fluorescence intensity to the respective calibration particles (beads) that were analyzed simultaneously. […]

Assay [2] concerns peritoneal macrophages. In words: Stability of membrane-bound thiol expression in peritoneal macrophages in the dialysis model. The following applies: 14 days, high-glucose dialysis solution. On the procedure: The combinations of thiol-restored peritoneal macrophages used according to the invention were extracted from this test system after 6 days and cultivated over a period of 14 days in a dialysis model. For this purpose the peritoneal macrophages were adapted to matrices that were coated with collagen IV and placed in contact with conventional high-glucose dialysis solution 3 times a day for 60 minutes each time. In this case, the model was used for the induction of a combined hyperglycemic/osmotic stress. […] The membrane expression of thiol was determined on the basis of the median fluorescence intensity (mfi) of the specimen (3000 cells/measurement) after coupling to a chlormethyl-fuorochrome derivative. […] Here, too, there is a mono-effect of α-lipoic acid, although it lasts only briefly and after approximately 4 days in the dialysis model is only approximately 50% as effective as the combinations. A similar result is apparent in the curves of the membrane-bound thiol expression illustrated in FIG. 7.

Assay [3] deals with peritoneal macrophages. The assay is described as follows: Degree of differentiation and activation of peritoneal macrophages (CD15, CD11c, CD69, CD71 cytofluorimetry). The following applies: Control = 1.0; after 6 days of incubation; α-lipoic acid 50 μM, ambroxol 10 μM, enalapril 5 μM, captopril 10 μM.

Take `O=C(O)CCCCC1CCSS1` (stereo not drawn) [α-lipoic acid]: in assay [1], the “Effect on the intracellular thiol deficit (in words)” value is reported as “not possible to achieve a complete compensation of the thiol deficit”. Further, the “Membrane-bound thiol expression in the dialysis model (in words)” value in the assay with peritoneal macrophages [2] is “intermediary”. Also, in the assay with peritoneal macrophages [3], the CD11c/71 co-expression was 1.08 ± 0.09.
